For two molecules, Ki and MPE % results are on record in patent publication US8609659B2, “Substituted 3,8-diazabicyclo[3.2.1]octane compounds” (Neuroscienze Pharmaness S.C.A.R.L., priority 2009, dated 2013).

In test [1] the target is T1, δ opioidergic receptors (Mus musculus, UniProt P32300).
T1 construct: from tissue; host or cells: CD1 mouse vas deferens segments (isolated organ)
As to the kind of experiment: Radioreceptorial binding, δ opioidergic receptors ([3H]-DPDPE, mouse brain membranes). The settings on record: 1 nM [3H]-DPDPE, CD1 mouse brain membranes, 25° C., 60 minutes.

The test system of test [2] is mouse. The test is classed as in vivo. The conditions noted are these: 5 mg/Kg i.p., average ± SEM of 6 animals. The protocol: In the Tail Flick test it is determined the time elapsed between the exposure of one part of the mouse tail (2 cm measured from the tail tip) to a small heat source and the time when the animal moves away the tail (Ruiu) S. et al. in J. Pharmacol. Exp. Ther.; 306 (1) (2003) 363-370). This time interval is automatically calculated by a specific equipment for the Tail-Flick test (Apparatus for the Tail Flick, Ugo Basile, Italy). The equipment is provided with an infrared lamp that is the heat regulatable source. For avoiding lesions to the tail tissues a maximum latency time has been fixed (cut-off=12 sec), after which the tail is moved away from the heat source.
The values of the latency time obtained in the experimentation were expressed in MPE % (maximum possible effect %), according to the formula:
[formula] wherein: Test Latency is the time in seconds elapsed before the animal moves away the tail from the heat source, Base Latency is the time in seconds elapsed before the same, untreated animal moves away the tail from the heat source.
The analgesic potency of the compound obtained in Example 6.1 was evaluated. The compound was solubilized in an aqueous solution (carrier), formed of a mixture of a physiological solution, ethanol and Cremophor® EL in the ratios by volume: 18.5:1.0:0.5. The blank or control was the carrier. The test compound was administered by intraperitoneal (i.p.) route, by using a solution volume to obtain a dose of 5 mg/kg.
The duration of the analgesic effect was evaluated by determining the MPE % values obtained at different times (20, 40, 60, 120 minutes) from administration of the compound and of the corresponding control (carrier).
Example 13 was repeated but using the compound synthesized in Ex. 6.9. The analgesic activity was evaluated at 30, 60, 120 and 240 minutes from the administration of the compound. The compound was administered at the dose of 5 mg/Kg after solubilization in an aqueous solution (carrier) formed of physiological solution, ethanol and Cremophor® EL in the same ratios as indicated in Example 13.
In order to evaluate the property of the compounds of formula (I) in the modulation of the analgesic effect of morphine, the Tail Flick test was carried out by using either only morphine or morphine in association with the compound of Ex. 6.9. The procedure described in Ex. 13 was repeated by recording the MPE % values at different times from the administration of the tested compounds: 30, 60, 120 and 240 minutes.

Test [3] has as its target T2, k opioidergic receptors (Mus musculus, UniProt P33534).
T2 construct: the complete brain (excluding the cerebellum) was quickly dissected and stored in ice; from tissue; host or cells: CD1 mouse brain (excluding cerebellum) membranes
As to the kind of experiment: Radioreceptorial binding, k opioidergic receptors (3H-U 69.593, mouse brain membranes). From the text:
The affinity of the compounds synthesized towards the opioidergic receptors μ, δ, k has been evaluated in vitro by radioreceptorial binding studies by using the method reported hereinunder.
For evaluating the affinity of a compound to a particular receptor(s) it is used a preparation of a tissue wherein the particular receptor(s) is (are) present, with which the compound is contacted. The tested compound is challenged with a radioactive labelled compound whose affinity for the same receptor(s) is known. The ability of the tested compound to displace the radioactive compound from the receptor gives an index of the affinity of the compound under test for the specific receptor. The amount of radioactivity present in the receptor-compound complex allows furthermore to calculate with great accuracy the amount of compound bound to the receptor. By said method it is therefore possible to quickly establish the affinity of a new compound towards a specific receptor and thus determine its pharmacological activity. With the same experimental protocol it is possible to evaluate the affinity of the compound towards other receptors and thus establishing the specificity degree of the compound towards these further receptors.
The experimentation has been carried out according to the guide lines of the European Community for the animal experimentation (EEC n. 86/609), by using laboratory animals (CD1 Charles River Italy male mice, Calco, LC, Italy) lodged twenty per cage, under standard stabulation conditions (temperature 22±2° C., relative humidity 60%, artificial lighting with light/dark cycle of 12 hours). The food and water were ad libitum.
Receptors k: CD1 male mice weighing 20-25 g were used. The animals were sacrificed by cervical dislocation and the complete brain (excluding the cerebellum) was quickly dissected and stored in ice. The tissue was homogeneized in 40 volumes (w/v) of Tris-HCl buffer (50 Mm, pH 7.4) by an Ultra-Turrax, then centrifuged for 20 minutes at 48,000×g in a centrifuge refrigerated at 4° C. The […] was resuspended in the same buffer and incubated at 37° C. for 30 minutes in an oscillating bath. At the end of the incubation the suspension was centrifuged at 48,000×g for 15 minutes and the obtained pellets resuspended in 10 volumes of Tris-HCl buffer. The binding experiment was carried out in a 1 ml volume of the suspension at the temperature of 25° C. with a protein content in the sample of about 800-1000 μg. Incubation was carried out for 60 minutes in the presence of various concentrations of the ligand ^3H-U 69.593 (41.7 Ci/mmole). The non specific binding was determined in the presence of U69593 (10 μM). Incubation was then interrupted by performing a quick filtration by filtration apparatus Brandell®, Gaithersburg, Md., USA), by using GF/C filters (Whatman®). Receptors μ and δ: the experiments were carried out according to the method described by Unterwald (1995), by using CD1 male mice weighing 20-25 g, lodged twenty in a cage, under standard stabulation conditions (temperature 22±2° C., relative humidity 60%, artificial lighting with light/dark cycle of 12 hours). After sacrifice, the complete brain (excluding the cerebellum) was quickly dissected. The so obtained tissues were rapidly homogenized, by a Polytron® equipment in 50 volumes of Tris HCl buffer (50 mM), pH 7.4 and the homogenate centrifuged at 48,000×g for 20 minutes at 4° C. The pellets obtained after centrifugation were suspended in 50 volumes of the same buffer and the so prepared suspensions were incubated at 37° C. for 45 minutes, in an oscillating bath, for making easier the separation of the endogenous opioids from the receptors. At the end of the incubation the suspensions were centrifuged at 48,000×g, for 20 minutes at 4° C. and the resulting pellets resuspended in 40 volumes of the Tris HCl (50 mM) buffer, pH 7.4. The suspension of cerebral membranes was used for the binding tests. […]

The structures appear in SMILES notation. Like-named read-outs stand apart in the source and are kept apart here.

T2 sequence (P33534 whole entry): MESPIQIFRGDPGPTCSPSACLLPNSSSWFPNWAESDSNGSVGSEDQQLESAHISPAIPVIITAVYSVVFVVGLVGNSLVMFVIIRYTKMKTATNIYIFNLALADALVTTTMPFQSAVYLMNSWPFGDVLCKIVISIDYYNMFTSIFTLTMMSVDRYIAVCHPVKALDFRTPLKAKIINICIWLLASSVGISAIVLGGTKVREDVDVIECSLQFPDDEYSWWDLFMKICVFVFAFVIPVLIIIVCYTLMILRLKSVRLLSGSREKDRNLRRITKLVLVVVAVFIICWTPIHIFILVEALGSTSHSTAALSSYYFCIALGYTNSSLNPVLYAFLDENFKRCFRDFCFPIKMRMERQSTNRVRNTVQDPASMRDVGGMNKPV
T1 sequence (P32300 whole entry): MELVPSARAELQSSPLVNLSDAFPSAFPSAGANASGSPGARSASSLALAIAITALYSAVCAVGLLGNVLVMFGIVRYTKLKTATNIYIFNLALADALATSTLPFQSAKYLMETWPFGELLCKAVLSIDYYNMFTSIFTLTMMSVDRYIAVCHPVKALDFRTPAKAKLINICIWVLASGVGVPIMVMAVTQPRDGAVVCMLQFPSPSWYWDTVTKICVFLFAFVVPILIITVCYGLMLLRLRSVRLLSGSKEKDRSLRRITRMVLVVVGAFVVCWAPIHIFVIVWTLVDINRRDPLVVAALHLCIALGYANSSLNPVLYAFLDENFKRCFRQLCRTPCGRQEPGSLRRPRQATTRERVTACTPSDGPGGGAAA

For the molecule `C=CCN1C2CCC1C1CCC2N1C(c1ccc(C(=O)N(CC)CC)cc1)c1cccc(OC)c1` (stereo not drawn) [Example 6.1, 4-[(10-allyl-9,10-diazatricyclo[4.2.1.1^2,5]dec-9-yl)-(3-methoxyphenyl)methyl]-N,N-diethylbenzamide], the Ki in test [1] was 0.203 ± 0.032 nM; in test [3], 55 ± 25 nM. In addition, the MPE % is 15.1 ± 3.5% in test [2] (20 min), 50.1 ± 12.0% in test [2] (40 min), 20.0 ± 3.0% in test [2] (60 min) and 13.2 ± 2.8% in test [2] (120 min).
For `C=CCN1C2CCC1C1CCC2N1C(c1ccc(C(=O)N(CC)CC)cc1)c1cccc(O)c1` (stereo not drawn) [Example 6.9, 4-[(10-allyl-9,10-diazatricyclo[4.2.1.1^2,5]dec-9-yl)-(3-hydroxyphenyl)methyl]-N,N-diethylbenzamide], the inhibitory constant (Ki) in test [1] was found to be 0.23 ± 0.03 nM; in test [3] (3H-U 69.593, CD1 mouse brain membranes, 25° C., 60 minutes, read-out: Ki k) it was 4.8 ± 0.9 nM. For the same molecule, the MPE % in test [2] (30 min) amounted to 30.1 ± 2.7%; in test [2] (60 min) it was 32.8 ± 10.0%; in test [2] (120 min), 18.5 ± 2.0%; in test [2] (240 min), 1.2 ± 0.6%.
